Assay results from ChEMBL document CHEMBL4507276 (2021).

What was measured:
[1] = molecular target: 5'-AMP-activated protein kinase catalytic subunit alpha-2 (Homo sapiens) (UniProt P54646); details: Compound concentration 1000.0 nM
[2] = molecular target: Serine/threonine-protein kinase BRSK2 (Homo sapiens) (UniProt Q8IWQ3); details: Compound concentration 1000.0 nM
[3] = tested on: Receptor-type tyrosine-protein kinase FLT3 (Homo sapiens), P36888 [K663Q]; details: Compound concentration 1000.0 nM
[4] = molecular target: Vascular endothelial growth factor receptor 3 (Homo sapiens) (UniProt P35916); details: Compound concentration 1000.0 nM
[5] = molecular target: T1, MAP/microtubule affinity-regulating kinase 4 (Homo sapiens) (UniProt Q96L34); details: Compound concentration 1000.0 nM
T1 sequence (whole entry): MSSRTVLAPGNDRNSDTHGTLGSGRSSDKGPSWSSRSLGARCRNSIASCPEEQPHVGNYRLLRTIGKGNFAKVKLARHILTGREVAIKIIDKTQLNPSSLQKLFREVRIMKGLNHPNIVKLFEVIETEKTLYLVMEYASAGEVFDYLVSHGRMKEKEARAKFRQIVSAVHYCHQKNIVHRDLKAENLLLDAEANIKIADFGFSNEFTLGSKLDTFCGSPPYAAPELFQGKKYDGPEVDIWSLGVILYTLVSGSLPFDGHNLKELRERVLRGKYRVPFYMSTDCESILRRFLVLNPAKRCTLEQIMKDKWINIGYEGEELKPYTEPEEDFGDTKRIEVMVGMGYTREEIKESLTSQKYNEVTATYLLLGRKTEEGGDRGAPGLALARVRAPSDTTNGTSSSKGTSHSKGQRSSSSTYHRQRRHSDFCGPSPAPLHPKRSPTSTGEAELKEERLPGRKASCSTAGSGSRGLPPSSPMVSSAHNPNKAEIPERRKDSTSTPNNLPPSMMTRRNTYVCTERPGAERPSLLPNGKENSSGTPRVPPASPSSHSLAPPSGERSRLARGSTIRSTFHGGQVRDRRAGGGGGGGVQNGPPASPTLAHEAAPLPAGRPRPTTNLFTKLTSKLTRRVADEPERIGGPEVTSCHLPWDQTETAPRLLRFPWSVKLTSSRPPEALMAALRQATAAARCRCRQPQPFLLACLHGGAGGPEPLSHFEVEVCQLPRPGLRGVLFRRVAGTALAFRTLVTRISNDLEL

[6] = molecular target: Dual specificity mitogen-activated protein kinase kinase 5 (Homo sapiens) (UniProt Q13163); details: Compound concentration 1000.0 nM
[7] = tested on: Hepatocyte growth factor receptor (Homo sapiens), P08581 [Y1235D]; details: Compound concentration 1000.0 nM
[8] = tested on: Phosphatidylinositol 4,5-bisphosphate 3-kinase catalytic subunit alpha isoform (Homo sapiens), P42336 [E545K]; details: Compound concentration 1000.0 nM
[9] = molecular target: Phosphatidylinositol 5-phosphate 4-kinase type-2 gamma (Homo sapiens) (UniProt Q8TBX8); details: Compound concentration 1000.0 nM
[10] = molecular target: Dual serine/threonine and tyrosine protein kinase (Homo sapiens) (UniProt Q6XUX3); details: Compound concentration 1000.0 nM
[11] = molecular target: Proto-oncogene tyrosine-protein kinase Src (Homo sapiens) (UniProt P12931); details: Compound concentration 1000.0 nM
[12] = molecular target: Serine/threonine-protein kinase 16 (Homo sapiens) (UniProt O75716); details: Compound concentration 1000.0 nM
[13] = molecular target: Sodium-dependent noradrenaline transporter (Homo sapiens) (UniProt P23975); details: Compound concentration 10.0 uM
[14] = molecular target: T2, Muscarinic acetylcholine receptor M2 (Homo sapiens) (UniProt P08172); details: Compound concentration 10.0 uM
T2 sequence (whole entry): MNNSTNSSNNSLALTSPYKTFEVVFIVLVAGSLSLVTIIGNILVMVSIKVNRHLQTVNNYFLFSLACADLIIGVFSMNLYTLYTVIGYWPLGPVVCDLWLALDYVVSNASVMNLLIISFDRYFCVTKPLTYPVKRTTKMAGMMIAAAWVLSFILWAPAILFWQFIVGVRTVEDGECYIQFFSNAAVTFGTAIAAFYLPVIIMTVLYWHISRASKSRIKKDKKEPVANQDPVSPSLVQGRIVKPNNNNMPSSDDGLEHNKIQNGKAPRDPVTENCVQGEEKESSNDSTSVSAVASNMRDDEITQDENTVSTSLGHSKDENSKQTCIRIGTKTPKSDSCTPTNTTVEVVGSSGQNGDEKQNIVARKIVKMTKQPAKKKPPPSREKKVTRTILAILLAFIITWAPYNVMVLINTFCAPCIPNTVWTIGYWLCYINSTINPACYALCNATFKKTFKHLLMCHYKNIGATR

[15] = molecular target: Sigma intracellular receptor 2 (Homo sapiens) (UniProt Q5BJF2); details: Compound concentration 10.0 uM
Chain of Sigma intracellular receptor 2 (Homo sapiens) (Q5BJF2 whole entry): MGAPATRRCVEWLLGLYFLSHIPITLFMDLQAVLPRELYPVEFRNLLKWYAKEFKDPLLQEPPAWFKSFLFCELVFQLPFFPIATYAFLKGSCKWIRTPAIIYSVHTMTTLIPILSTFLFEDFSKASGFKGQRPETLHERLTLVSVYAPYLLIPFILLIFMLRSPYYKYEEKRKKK

Chain of Dual specificity mitogen-activated protein kinase kinase 5 (Homo sapiens) (Q13163 whole entry): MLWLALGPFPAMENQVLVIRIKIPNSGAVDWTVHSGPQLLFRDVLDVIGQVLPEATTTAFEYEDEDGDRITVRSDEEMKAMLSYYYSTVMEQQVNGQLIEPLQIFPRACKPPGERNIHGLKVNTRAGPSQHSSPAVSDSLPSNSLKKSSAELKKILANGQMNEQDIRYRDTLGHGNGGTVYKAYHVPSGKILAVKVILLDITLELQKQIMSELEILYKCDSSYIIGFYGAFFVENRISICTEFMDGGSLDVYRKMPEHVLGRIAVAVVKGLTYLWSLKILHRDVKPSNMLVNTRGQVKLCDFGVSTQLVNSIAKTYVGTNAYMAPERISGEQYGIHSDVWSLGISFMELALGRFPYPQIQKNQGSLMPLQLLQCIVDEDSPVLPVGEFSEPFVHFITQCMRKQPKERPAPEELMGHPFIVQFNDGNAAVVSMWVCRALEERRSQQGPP
Chain of Phosphatidylinositol 5-phosphate 4-kinase type-2 gamma (Homo sapiens) (Q8TBX8 whole entry): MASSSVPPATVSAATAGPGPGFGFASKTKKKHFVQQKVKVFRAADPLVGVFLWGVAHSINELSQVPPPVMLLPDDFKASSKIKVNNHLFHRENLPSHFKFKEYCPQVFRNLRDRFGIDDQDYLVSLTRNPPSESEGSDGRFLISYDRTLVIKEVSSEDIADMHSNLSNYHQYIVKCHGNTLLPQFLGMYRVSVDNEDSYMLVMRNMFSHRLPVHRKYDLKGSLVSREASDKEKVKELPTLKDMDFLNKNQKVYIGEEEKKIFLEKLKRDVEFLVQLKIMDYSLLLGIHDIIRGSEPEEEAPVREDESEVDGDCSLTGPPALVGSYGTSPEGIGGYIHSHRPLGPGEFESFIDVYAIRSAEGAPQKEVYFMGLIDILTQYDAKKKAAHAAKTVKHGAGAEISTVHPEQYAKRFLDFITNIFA
Chain of Vascular endothelial growth factor receptor 3 (Homo sapiens) (P35916 whole entry): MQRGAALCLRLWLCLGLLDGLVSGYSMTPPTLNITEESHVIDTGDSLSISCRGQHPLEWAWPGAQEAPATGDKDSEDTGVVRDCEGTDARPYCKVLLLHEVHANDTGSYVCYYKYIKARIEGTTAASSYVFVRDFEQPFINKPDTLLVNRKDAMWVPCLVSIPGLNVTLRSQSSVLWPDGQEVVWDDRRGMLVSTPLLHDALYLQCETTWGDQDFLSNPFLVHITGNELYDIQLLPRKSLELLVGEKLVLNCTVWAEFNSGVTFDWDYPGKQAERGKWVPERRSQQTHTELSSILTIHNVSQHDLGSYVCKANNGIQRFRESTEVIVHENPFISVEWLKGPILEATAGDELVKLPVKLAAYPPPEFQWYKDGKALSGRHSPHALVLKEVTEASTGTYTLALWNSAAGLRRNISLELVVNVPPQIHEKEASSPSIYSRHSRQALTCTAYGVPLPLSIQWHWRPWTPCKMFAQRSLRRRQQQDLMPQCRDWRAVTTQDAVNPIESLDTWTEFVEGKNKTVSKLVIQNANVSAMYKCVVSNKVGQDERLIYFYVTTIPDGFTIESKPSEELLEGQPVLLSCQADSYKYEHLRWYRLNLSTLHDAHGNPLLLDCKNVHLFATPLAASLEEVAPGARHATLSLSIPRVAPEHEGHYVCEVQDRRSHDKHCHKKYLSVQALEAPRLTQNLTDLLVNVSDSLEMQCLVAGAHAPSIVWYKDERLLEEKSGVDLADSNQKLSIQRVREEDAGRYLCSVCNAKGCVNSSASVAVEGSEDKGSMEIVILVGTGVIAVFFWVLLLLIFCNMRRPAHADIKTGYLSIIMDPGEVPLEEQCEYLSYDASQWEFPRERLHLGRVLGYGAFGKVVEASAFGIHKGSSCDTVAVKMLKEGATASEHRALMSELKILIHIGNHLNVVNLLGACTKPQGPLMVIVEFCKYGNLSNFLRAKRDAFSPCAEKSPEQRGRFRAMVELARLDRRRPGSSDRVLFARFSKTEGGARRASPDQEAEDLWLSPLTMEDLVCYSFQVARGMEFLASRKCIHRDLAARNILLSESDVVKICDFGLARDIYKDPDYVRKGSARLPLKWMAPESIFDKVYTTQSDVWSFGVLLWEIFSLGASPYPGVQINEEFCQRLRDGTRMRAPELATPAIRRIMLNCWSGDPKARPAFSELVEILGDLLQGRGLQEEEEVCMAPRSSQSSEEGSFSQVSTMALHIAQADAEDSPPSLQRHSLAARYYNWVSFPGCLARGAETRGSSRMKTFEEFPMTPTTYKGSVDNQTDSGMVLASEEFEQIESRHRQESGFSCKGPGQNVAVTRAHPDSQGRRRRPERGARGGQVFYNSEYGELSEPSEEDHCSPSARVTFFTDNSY
Chain of Proto-oncogene tyrosine-protein kinase Src (Homo sapiens) (P12931 2-536 limits assumed): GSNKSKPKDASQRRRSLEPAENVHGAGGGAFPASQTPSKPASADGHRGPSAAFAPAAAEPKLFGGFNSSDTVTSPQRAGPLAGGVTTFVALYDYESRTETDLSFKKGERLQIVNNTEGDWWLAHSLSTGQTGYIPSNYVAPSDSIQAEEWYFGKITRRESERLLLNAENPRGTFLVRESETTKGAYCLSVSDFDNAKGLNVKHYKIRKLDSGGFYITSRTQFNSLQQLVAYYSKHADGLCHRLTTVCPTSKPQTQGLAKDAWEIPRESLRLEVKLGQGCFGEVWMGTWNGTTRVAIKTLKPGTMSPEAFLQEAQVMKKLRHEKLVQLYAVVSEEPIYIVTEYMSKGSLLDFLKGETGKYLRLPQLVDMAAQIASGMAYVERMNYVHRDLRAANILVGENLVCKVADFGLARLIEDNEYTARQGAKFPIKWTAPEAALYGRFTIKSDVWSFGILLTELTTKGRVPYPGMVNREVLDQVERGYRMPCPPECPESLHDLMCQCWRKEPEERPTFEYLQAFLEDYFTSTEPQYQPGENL
Chain of Dual serine/threonine and tyrosine protein kinase (Homo sapiens) (Q6XUX3 whole entry): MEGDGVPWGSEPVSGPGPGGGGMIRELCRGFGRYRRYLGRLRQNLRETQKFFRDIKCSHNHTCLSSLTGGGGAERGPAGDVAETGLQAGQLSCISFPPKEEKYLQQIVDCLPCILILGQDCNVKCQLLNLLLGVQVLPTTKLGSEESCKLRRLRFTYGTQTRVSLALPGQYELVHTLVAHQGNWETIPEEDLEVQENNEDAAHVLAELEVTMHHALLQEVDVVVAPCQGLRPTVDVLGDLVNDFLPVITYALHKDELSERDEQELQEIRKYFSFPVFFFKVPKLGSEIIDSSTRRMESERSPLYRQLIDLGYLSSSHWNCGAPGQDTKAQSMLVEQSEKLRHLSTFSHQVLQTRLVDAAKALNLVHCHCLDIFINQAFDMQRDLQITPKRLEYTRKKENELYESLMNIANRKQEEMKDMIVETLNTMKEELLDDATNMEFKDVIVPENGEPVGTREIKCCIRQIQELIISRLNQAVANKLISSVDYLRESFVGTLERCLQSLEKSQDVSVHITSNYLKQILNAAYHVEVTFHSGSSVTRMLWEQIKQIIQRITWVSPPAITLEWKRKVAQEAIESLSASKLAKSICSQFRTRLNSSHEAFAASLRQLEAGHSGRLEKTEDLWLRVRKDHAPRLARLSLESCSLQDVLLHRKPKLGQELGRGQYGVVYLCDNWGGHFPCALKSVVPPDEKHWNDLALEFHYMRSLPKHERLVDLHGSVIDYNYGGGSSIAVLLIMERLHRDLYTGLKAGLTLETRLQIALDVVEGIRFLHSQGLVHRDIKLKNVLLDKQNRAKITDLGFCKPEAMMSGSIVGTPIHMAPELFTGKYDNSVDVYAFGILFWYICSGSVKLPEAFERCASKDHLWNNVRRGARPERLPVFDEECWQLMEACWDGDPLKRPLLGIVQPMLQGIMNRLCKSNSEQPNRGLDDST
Chain of Sodium-dependent noradrenaline transporter (Homo sapiens) (P23975 whole entry): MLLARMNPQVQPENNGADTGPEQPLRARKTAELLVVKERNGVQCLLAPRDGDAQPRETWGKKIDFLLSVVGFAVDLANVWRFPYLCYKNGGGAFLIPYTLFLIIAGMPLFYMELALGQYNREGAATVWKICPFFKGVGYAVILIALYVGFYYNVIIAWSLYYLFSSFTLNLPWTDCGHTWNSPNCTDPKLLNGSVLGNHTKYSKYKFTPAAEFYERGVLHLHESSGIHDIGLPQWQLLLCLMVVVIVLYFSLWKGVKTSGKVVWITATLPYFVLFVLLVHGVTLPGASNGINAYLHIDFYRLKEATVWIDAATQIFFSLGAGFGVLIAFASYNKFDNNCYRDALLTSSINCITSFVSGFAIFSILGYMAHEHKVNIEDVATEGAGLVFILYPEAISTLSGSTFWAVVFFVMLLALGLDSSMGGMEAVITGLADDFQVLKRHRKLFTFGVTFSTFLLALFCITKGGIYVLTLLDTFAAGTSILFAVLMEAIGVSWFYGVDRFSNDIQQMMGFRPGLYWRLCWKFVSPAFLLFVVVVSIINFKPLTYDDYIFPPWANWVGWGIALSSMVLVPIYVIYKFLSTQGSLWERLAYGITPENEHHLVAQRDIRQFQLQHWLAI
Chain of Serine/threonine-protein kinase 16 (Homo sapiens) (O75716 whole entry): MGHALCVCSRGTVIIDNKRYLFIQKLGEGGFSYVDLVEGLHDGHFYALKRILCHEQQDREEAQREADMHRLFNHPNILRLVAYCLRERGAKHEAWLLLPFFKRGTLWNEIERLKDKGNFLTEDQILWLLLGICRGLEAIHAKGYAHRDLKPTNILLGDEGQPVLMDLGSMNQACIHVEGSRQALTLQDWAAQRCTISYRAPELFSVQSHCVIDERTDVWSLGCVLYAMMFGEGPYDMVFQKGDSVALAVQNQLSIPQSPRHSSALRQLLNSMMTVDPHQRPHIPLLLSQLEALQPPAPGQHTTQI

CN(C)C(=O)Cn1cc(-c2nc(C3(c4ccc(-c5cnc(N)nc5)cc4)CC3)no2)cn1 [BI 0153]
inactive: residual activity [1] 86% | residual activity [2] 77% | residual activity [3] 100% | residual activity [4] 95% | residual activity [5] 96% | residual activity [6] 72% | residual activity [7] 98% | residual activity [8] 85% | residual activity [9] 100% | residual activity [10] 94% | residual activity [11] 84% | residual activity [12] 100% | inhibition [13] 8.33% | inhibition [14] -0.311% | inhibition [15] 25%

CN(C)C(=O)Cn1cc(-c2nc([C@@](C)(c3ccc(-c4cnc(N)nc4)cc3)C3CC3)no2)cn1 [BI 665915]
inactive: residual activity [1] 100% | residual activity [2] 100% | residual activity [3] 94% | residual activity [4] 88% | residual activity [5] 95% | residual activity [6] 62% | residual activity [7] 96% | residual activity [8] 81% | residual activity [9] 100% | residual activity [10] 57% | residual activity [11] 90% | residual activity [12] 100% | inhibition [13] 18.9% | inhibition [14] -7.53% | inhibition [15] 10.1%
